Measured values as given in the OPERA property sets (Mansouri et al. 2018).
≈ marks a conversion by molar mass, not a printed value.

conditions: not given

| Structure (SMILES) | logP |
| --- | --- |
| Clc1ccc(Oc2cc(Cl)c(Cl)c(Cl)c2)cc1Cl | 6.83 |
| Clc1cc(Oc2ccc(Cl)c(Cl)c2Cl)cc(Cl)c1Cl | 6.99 |
| Clc1cc(Cl)c(Oc2cc(Cl)c(Cl)c(Cl)c2)cc1Cl | 7.11 |
| Clc1ccc(Oc2cc(Cl)c(Cl)cc2Cl)c(Cl)c1 | 6.38 |
| Clc1cc(Oc2cc(Cl)c(Cl)c(Cl)c2Cl)cc(Cl)c1Cl | 7.55 |
| Clc1cc(Oc2c(Cl)c(Cl)c(Cl)c(Cl)c2Cl)c(Cl)c(Cl)c1Cl | 8.07 |
| Clc1cc(Cl)c(Cl)c(Oc2ccccc2)c1 | 5.62 |
| Clc1cc(Cl)c(Oc2ccccc2)c(Cl)c1Cl | 5.88 |
| Clc1ccc(Oc2cccc(Cl)c2Cl)cc1Cl | 5.99 |
| Clc1ccc(Oc2ccc(Cl)c(Cl)c2Cl)c(Cl)c1 | 6.28 |
| Clc1ccc(Oc2cc(Cl)cc(Cl)c2Cl)cc1 | 6.01 |
| Clc1cc(Cl)c(Cl)c(Oc2cc(Cl)c(Cl)c(Cl)c2)c1 | 7.01 |
| Clc1ccc(Oc2c(Cl)c(Cl)c(Cl)c(Cl)c2Cl)c(Cl)c1 | 7.31 |
| Clc1ccc(Oc2cccc(Cl)c2)cc1 | 5.13 |
| Clc1ccc(Cl)c(Oc2cc(Cl)c(Cl)cc2Cl)c1 | 6.22 |
| Clc1ccc(Oc2c(Cl)cc(Cl)c(Cl)c2Cl)c(Cl)c1 | 6.84 |
| Clc1ccc(Oc2ccccc2Cl)cc1 | 5.03 |
| Clc1cc(Oc2cc(Cl)c(Cl)c(Cl)c2Cl)c(Cl)c(Cl)c1Cl | 7.78 |
| Clc1cc(Oc2c(Cl)ccc(Cl)c2Cl)c(Cl)c(Cl)c1Cl | 6.98 |
| Clc1ccc(Oc2ccc(Cl)c(Cl)c2)c(Cl)c1 | 6.13 |
| Clc1ccc(Oc2cc(Cl)c(Cl)c(Cl)c2)cc1 | 6.3 |
| Clc1ccc(Oc2cc(Cl)c(Cl)c(Cl)c2Cl)c(Cl)c1 | 6.72 |
| Clc1ccc(Oc2c(Cl)c(Cl)c(Cl)c(Cl)c2Cl)cc1 | 6.95 |
| Clc1cc(Cl)cc(Oc2cc(Cl)c(Cl)cc2Cl)c1 | 6.66 |
| Clc1cc(Cl)c(Oc2ccc(Cl)c(Cl)c2Cl)cc1Cl | 7.01 |
| Clc1ccc(Oc2ccccc2Cl)cc1Cl | 5.5 |

| Structure (SMILES) | logP |
| --- | --- |
| Clc1ccc(Oc2ccccc2)c(Cl)c1Cl | 5.55 |
| Clc1ccc(Oc2c(Cl)cccc2Cl)c(Cl)c1Cl | 6.11 |
| Clc1ccc(Cl)c(Oc2ccc(Cl)c(Cl)c2Cl)c1 | 6.51 |
| Clc1cccc(Oc2ccc(Cl)c(Cl)c2Cl)c1Cl | 6.3 |
| Clc1ccc(Oc2c(Cl)ccc(Cl)c2Cl)cc1Cl | 6.31 |
| Clc1ccc(Cl)c(Oc2ccc(Cl)c(Cl)c2)c1 | 6.11 |
| Clc1cc(Cl)c(Oc2c(Cl)ccc(Cl)c2Cl)cc1Cl | 6.47 |
| Clc1ccc(Cl)c(Oc2ccccc2)c1 | 5.13 |
| Clc1ccc(Oc2ccc(Cl)c(Cl)c2)cc1 | 5.88 |
| Clc1ccccc1Oc1ccccc1 | 4.45 |
| Clc1ccc(Oc2cc(Cl)cc(Cl)c2Cl)c(Cl)c1 | 6.54 |
| Clc1cc(Cl)c(Oc2ccccc2Cl)cc1Cl | 5.97 |
| Clc1ccc(Oc2ccccc2)cc1Cl | 4.99 |
| Clc1cc(Cl)c(Oc2ccccc2)c(Cl)c1 | 5.32 |
| Clc1ccc(Oc2c(Cl)c(Cl)cc(Cl)c2Cl)cc1 | 6.41 |
| Clc1ccc(Oc2cc(Cl)c(Cl)c(Cl)c2Cl)cc1 | 6.61 |
| Clc1cccc(Oc2ccc(Cl)c(Cl)c2)c1 | 5.74 |
| Clc1cc(Cl)c(Oc2ccc(Cl)c(Cl)c2)c(Cl)c1 | 6.44 |
| Clc1cc(Cl)cc(Oc2ccccc2)c1 | 5.21 |
| Clc1ccc(Oc2ccccc2Cl)c(Cl)c1 | 4.96 |
| Clc1ccc(Oc2ccccc2)c(Cl)c1 | 4.93 |
| Clc1ccc(Oc2ccc(Cl)c(Cl)c2Cl)cc1 | 6.14 |
| Clc1cc(Cl)c(Cl)c(Oc2ccccc2)c1Cl | 5.82 |
| Clc1ccc(Oc2cc(Cl)c(Cl)c(Cl)c2Cl)cc1Cl | 7.07 |
| Clc1ccc(Oc2c(Cl)c(Cl)c(Cl)c(Cl)c2Cl)cc1Cl | 7.31 |
| Clc1ccc(Oc2cc(Cl)c(Cl)cc2Cl)cc1Cl | 6.6 |

| Structure (SMILES) | logP |
| --- | --- |
| Clc1ccc(Oc2ccc(Cl)c(Cl)c2Cl)cc1Cl | 6.51 |
| Clc1cc(Oc2c(Cl)c(Cl)cc(Cl)c2Cl)c(Cl)c(Cl)c1Cl | 7.63 |
| Clc1cc(Cl)cc(Oc2ccc(Cl)c(Cl)c2)c1 | 6.22 |
| Clc1ccc(Oc2ccccc2)cc1 | 4.7 |
| Clc1ccc(Oc2c(Cl)ccc(Cl)c2Cl)cc1 | 5.64 |
| Clc1ccc(Oc2ccc(Cl)cc2Cl)c(Cl)c1 | 5.95 |
| Clc1cccc(Oc2cc(Cl)c(Cl)cc2Cl)c1 | 6.14 |
| Clc1ccc(Oc2cc(Cl)ccc2Cl)c(Cl)c1 | 5.78 |
| Clc1cccc(Oc2ccc(Cl)c(Cl)c2Cl)c1 | 6.07 |
| Clc1cccc(Oc2ccc(Cl)cc2Cl)c1 | 5.65 |
| Clc1ccc(Oc2cc(Cl)c(Cl)c(Cl)c2)c(Cl)c1 | 6.63 |
| Clc1ccc(Cl)c(Oc2ccccc2)c1Cl | 5.35 |
| Clc1cc(Cl)c(Cl)c(Oc2ccc(Cl)c(Cl)c2)c1 | 6.52 |
| Clc1cc(Cl)cc(Oc2ccc(Cl)cc2Cl)c1 | 6.13 |
| Clc1ccc(Oc2ccc(Cl)cc2)cc1 | 5.25 |
| Clc1cc(Cl)c(Oc2cc(Cl)c(Cl)cc2Cl)c(Cl)c1 | 6.49 |
| Clc1ccc(Oc2c(Cl)ccc(Cl)c2Cl)c(Cl)c1Cl | 6.47 |
| Clc1ccc(Oc2c(Cl)c(Cl)c(Cl)c(Cl)c2Cl)c(Cl)c1Cl | 7.84 |
| Clc1ccc(Oc2cccc(Cl)c2Cl)c(Cl)c1 | 5.88 |
| Clc1ccc(Oc2c(Cl)cc(Cl)cc2Cl)c(Cl)c1 | 6.11 |
| Clc1cc(Cl)cc(Oc2ccc(Cl)c(Cl)c2Cl)c1 | 6.58 |
| Clc1cccc(Oc2ccccc2)c1 | 4.75 |
| Clc1cc(Cl)c(Oc2c(Cl)c(Cl)c(Cl)c(Cl)c2Cl)cc1Cl | 7.81 |
| Clc1ccc(Oc2c(Cl)cc(Cl)c(Cl)c2Cl)cc1 | 6.47 |
| Clc1c(Cl)c(Cl)c(Oc2ccccc2)c(Cl)c1Cl | 6.37 |
| Clc1ccc(Oc2cc(Cl)c(Cl)c(Cl)c2Cl)c(Cl)c1Cl | 7.28 |

| Structure (SMILES) | logP |
| --- | --- |
| Clc1ccc(Oc2ccc(Cl)c(Cl)c2)cc1Cl | 6.36 |
| Clc1cc(Oc2c(Cl)ccc(Cl)c2Cl)cc(Cl)c1Cl | 6.65 |
| Clc1ccc(Oc2cc(Cl)cc(Cl)c2)cc1 | 5.77 |
| Clc1ccc(Oc2c(Cl)c(Cl)cc(Cl)c2Cl)c(Cl)c1Cl | 7.14 |
| Clc1ccc(Oc2ccc(Cl)cc2Cl)cc1 | 5.53 |
| Clc1ccc(Oc2ccc(Cl)c(Cl)c2Cl)c(Cl)c1Cl | 6.82 |
| Clc1ccc(Oc2cc(Cl)c(Cl)cc2Cl)cc1 | 5.99 |
| Clc1ccc(Oc2c(Cl)ccc(Cl)c2Cl)c(Cl)c1 | 6.06 |
| Clc1cc(Cl)c(Oc2c(Cl)cccc2Cl)cc1Cl | 5.98 |
| Clc1cc(Cl)c(Oc2cc(Cl)c(Cl)cc2Cl)cc1Cl | 6.72 |
| Clc1ccc(Oc2c(Cl)cccc2Cl)cc1Cl | 5.7 |
| Clc1ccc(Oc2c(Cl)c(Cl)cc(Cl)c2Cl)cc1Cl | 6.78 |
| Clc1ccc(Oc2c(Cl)cc(Cl)cc2Cl)cc1 | 5.92 |
| Clc1ccccc1Oc1ccc(Cl)c(Cl)c1Cl | 5.72 |
| Clc1ccc(Oc2cccc(Cl)c2Cl)cc1 | 5.63 |
| Clc1ccc(Oc2cc(Cl)ccc2Cl)cc1 | 5.66 |
| Clc1cc(Oc2ccccc2)cc(Cl)c1Cl | 5.7 |
| Clc1c(Cl)c(Cl)c(Oc2c(Cl)c(Cl)c(Cl)c(Cl)c2Cl)c(Cl)c1Cl | 8.16 |
| Clc1cccc(Oc2ccccc2)c1Cl | 5 |
| Clc1cc(Cl)c(Oc2cc(Cl)c(Cl)c(Cl)c2Cl)cc1Cl | 7.46 |
| Clc1ccc(Oc2c(Cl)cccc2Cl)cc1 | 5.3 |
| Clc1cc(Cl)c(Oc2cccc(Cl)c2Cl)cc1Cl | 6.22 |
| Clc1cc(Cl)c(Oc2c(Cl)c(Cl)cc(Cl)c2Cl)cc1Cl | 7.13 |
| Clc1cc(Cl)c(Cl)c(Oc2cc(Cl)c(Cl)cc2Cl)c1 | 6.65 |
| Clc1cccc(Cl)c1Oc1ccccc1 | 4.64 |

same assay, conditions: 25 °C

| Structure (SMILES) | solubility [µM] |
| --- | --- |
| Clc1cc(Cl)c(Cl)c(Oc2ccccc2)c1 | 6.47 (≈ 1.77 µg/mL) |
| Clc1ccc(Oc2cccc(Cl)c2)cc1 | 17 (≈ 4.06 µg/mL) |
| Clc1ccc(Oc2ccccc2Cl)cc1 | 3.02 (≈ 0.722 µg/mL) |
| Clc1ccc(Oc2ccccc2Cl)cc1Cl | 6.32 (≈ 1.73 µg/mL) |
| Clc1ccc(Cl)c(Oc2ccccc2)c1 | 10.7 (≈ 2.56 µg/mL) |
| Clc1ccc(Oc2ccc(Cl)c(Cl)c2)cc1 | 2.19 (≈ 0.598 µg/mL) |
| Clc1ccccc1Oc1ccccc1 | 16.6 (≈ 3.4 µg/mL) |
| Clc1ccc(Oc2ccccc2)cc1Cl | 19 (≈ 4.55 µg/mL) |
| Clc1cccc(Oc2ccc(Cl)c(Cl)c2)c1 | 3.66 (≈ 1 µg/mL) |
| Clc1cc(Cl)cc(Oc2ccccc2)c1 | 8.7 (≈ 2.08 µg/mL) |
| Clc1ccc(Oc2ccccc2Cl)c(Cl)c1 | 11.2 (≈ 3.07 µg/mL) |
| Clc1ccc(Oc2ccccc2)c(Cl)c1 | 23.4 (≈ 5.6 µg/mL) |
| Clc1cccc(Oc2ccc(Cl)cc2Cl)c1 | 3.62 (≈ 0.99 µg/mL) |
| Clc1cccc(Oc2ccccc2)c1 | 61.6 (≈ 12.6 µg/mL) |
| Clc1ccc(Oc2cc(Cl)cc(Cl)c2)cc1 | 3.02 (≈ 0.826 µg/mL) |
| Clc1ccc(Oc2ccc(Cl)cc2Cl)cc1 | 0.603 (≈ 0.165 µg/mL) |
| Clc1ccc(Oc2cccc(Cl)c2Cl)cc1 | 4.9 (≈ 1.34 µg/mL) |
| Clc1ccc(Oc2cc(Cl)ccc2Cl)cc1 | 3.63 (≈ 0.993 µg/mL) |
| Clc1ccc(Oc2c(Cl)cccc2Cl)cc1 | 1.23 (≈ 0.337 µg/mL) |
| Clc1cccc(Cl)c1Oc1ccccc1 | 8.7 (≈ 2.08 µg/mL) |
